Article PMC4713475, “In Vivo Differences between Two Optical Isomers of Radioiodinated o-iodo-trans-decalinvesamicol for Use as a Radioligand for the Vesicular Acetylcholine Transporter” (PLoS ONE, 2016)
Where two headings read alike, the source gives them in different places. One block for each compound: values may come before it.

How the values were obtained:
[1] = set-up: method as in PMID 24174343; conditions: previous report; cited from earlier work
σ-1 receptor = σ-1 receptor (Rattus norvegicus, UniProt Q9R0C9); assay: σ-1 receptor competitive binding with (+)-[3H]pentazocine in rat cerebrum preparations
VAChT = molecular target: T1, VAChT (Rattus norvegicus, UniProt Q62666); assay: VAChT in vitro competitive binding with (-)-[3H]vesamicol in rat brain preparations; conditions: read-out: Ki VAChT
T1 construct: The rats were sacrificed 60 minutes after injection and their brains collected; from tissue; host or cells: brain of live male Sprague-Dawley rats (in vivo)
T1 sequence (Q62666 1-530): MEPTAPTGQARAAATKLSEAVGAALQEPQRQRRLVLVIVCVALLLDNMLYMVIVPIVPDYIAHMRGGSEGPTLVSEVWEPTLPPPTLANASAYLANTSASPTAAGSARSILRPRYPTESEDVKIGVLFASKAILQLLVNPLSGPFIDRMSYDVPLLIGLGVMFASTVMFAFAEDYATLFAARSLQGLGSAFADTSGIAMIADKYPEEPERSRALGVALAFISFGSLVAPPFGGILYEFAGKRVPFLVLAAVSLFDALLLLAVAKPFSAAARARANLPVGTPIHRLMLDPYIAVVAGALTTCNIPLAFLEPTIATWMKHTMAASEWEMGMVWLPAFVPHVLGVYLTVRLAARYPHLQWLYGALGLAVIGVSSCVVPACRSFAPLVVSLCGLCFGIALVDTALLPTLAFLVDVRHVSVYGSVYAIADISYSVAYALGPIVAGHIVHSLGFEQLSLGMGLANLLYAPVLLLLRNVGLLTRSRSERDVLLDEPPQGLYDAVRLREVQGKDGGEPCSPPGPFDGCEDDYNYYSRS

σ-2 receptor = molecular target: T2, σ-2 receptor (Rattus norvegicus, UniProt Q5U3Y7); assay: σ-2 receptor competitive binding with [3H]DTG in rat liver preparations; conditions: read-out: Ki σ-2
T2 construct: Rat liver preparations (about 100 μg protein) were incubated in quadruplicate; from tissue; host or cells: liver of male Sprague-Dawley rats
T2 sequence (Q5U3Y7 1-176): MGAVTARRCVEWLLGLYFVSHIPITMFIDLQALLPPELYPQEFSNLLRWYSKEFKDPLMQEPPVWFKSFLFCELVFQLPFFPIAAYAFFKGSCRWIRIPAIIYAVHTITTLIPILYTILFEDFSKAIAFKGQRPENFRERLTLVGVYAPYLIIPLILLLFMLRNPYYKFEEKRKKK

σ-1 receptor, sequence (Q9R0C9 whole entry): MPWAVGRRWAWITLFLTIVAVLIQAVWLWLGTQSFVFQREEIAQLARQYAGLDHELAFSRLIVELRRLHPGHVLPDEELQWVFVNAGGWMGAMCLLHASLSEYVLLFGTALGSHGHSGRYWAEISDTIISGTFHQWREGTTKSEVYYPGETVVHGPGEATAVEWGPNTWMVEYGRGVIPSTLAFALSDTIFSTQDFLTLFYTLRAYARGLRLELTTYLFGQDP

SMILES: OC1C[C@@H]2CCCC[C@H]2CC1N1CCC(c2ccccc2[125I])CC1 (mixture of isomers) [racemic [^125I]OIDV]
radiolabeled metabolites in the brain [1]: unable to observe the presence of radiolabeled metabolites in the brain

Ki (σ-1 receptor): 168 ± 47.2 nM
Ki (VAChT): 22.1 ± 4.3 nM
Ki (σ-2 receptor): 59.9 ± 10.6 nM
SMILES: O[C@@H]1C[C@H]2CCCC[C@@H]2C[C@H]1N1CCC(c2ccccc2I)CC1 [(-)-OIDV]

SMILES: OC1CC2CCCCC2CC1N1CCC(c2ccccc2)CC1 (stereo not shown) [DV, decalinvesamicol]
Ki (σ-1 receptor; read-out: Ki σ-1, rat cerebrum preparations, 5 nM (+)-[3H]pentazocine, 37°C 90 min, mean ± SD): 74.4 ± 12 nM
Ki (VAChT; rat brain preparations, (-)-[3H]vesamicol, 200 nM DTG to mask sigma receptors, 37°C 60 min, mean ± SD): 8.6 ± 2.5 nM
Ki (σ-2 receptor; rat liver preparations, 5 nM [3H]DTG, 1 μM (+)-pentazocine to mask σ-1, 37°C 90 min, mean ± SD): 65.9 ± 12.1 nM
